# In US20230279000A1, “PYRIDOPYRIMIDINE DERIVATIVES USEFUL IN MODULATION OF AHR SIGNALLING” (JAGUAHR THERAPEUTICS PTE LTD, priority 2020, published 2023):
# Structures can show the parent of a compound that is named as a salt.
# What was measured:
# AhR [1] = target: T1, AhR (Homo sapiens, UniProt P35869); assay: AhR antagonism in U937 cells (Promega P450-Glo assay); format: cell-based; conditions: inhibition of 4.5 nM VAF347 agonist response, CYP1A1 activity (Luciferin-CEE) after 24 hrs, arithmetic mean of two or more tests, read-out: U937 Assay (pIC50) (converted)
# T1 construct: PBMCs were isolated from human peripheral blood using Lymphoprep; endogenous in cells
# T1 sequence (P35869 11-848): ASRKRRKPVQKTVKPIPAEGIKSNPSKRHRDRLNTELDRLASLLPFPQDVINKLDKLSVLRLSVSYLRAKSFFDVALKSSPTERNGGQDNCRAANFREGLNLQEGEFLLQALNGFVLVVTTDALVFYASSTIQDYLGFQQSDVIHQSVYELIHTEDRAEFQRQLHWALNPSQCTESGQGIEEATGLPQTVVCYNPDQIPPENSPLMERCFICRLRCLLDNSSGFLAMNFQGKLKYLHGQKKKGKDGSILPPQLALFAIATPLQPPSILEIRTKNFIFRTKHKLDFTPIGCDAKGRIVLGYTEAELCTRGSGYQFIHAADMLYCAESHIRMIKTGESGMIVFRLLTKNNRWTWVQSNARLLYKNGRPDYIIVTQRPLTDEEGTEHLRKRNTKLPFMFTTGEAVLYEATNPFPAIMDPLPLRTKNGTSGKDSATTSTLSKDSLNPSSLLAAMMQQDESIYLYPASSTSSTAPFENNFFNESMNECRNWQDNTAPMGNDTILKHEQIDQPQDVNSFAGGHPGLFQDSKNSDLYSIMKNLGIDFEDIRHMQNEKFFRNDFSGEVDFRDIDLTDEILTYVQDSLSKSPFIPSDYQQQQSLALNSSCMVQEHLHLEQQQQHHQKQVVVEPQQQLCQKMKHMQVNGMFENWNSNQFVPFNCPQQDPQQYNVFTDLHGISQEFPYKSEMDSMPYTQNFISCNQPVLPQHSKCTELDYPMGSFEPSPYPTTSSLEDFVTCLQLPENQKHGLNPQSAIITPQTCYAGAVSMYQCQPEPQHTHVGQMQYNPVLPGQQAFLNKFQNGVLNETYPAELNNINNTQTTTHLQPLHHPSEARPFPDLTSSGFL
# Experimental: (§1) Examples were tested in selected biological assays two or more times. Data are reported as the arithmetic mean of the pIC50 (-log10IC50) values, where IC50 is defined as the concentration of compound producing a 50% inhibition of the agonist response. In the case of the U937 assay, VAF347 was used as the agonist; in the peripheral blood mononuclear cell (PBMC) assay the effects of the test compounds are assessed against endogenously produced AhR agonists generated following PBMC activation.
# In Vitro Assay 1: AhR Antagonism in U937 Cells (Promega P450-Glo™ Assay)
# AhR antagonism was assessed in U937 cells (myeloid lineage cell line derived from a human histiocytic lymphoma). Ligand binds the AhR in the cytoplasm, and the AhR-ligand complex translocates to the nucleus and forms a heterodimer with AhR nuclear translocator (Arnt). This complex binds the xenobiotic response element (XRE) in the 5′ upstream region of the CYP1A1 promoter, enhancing CYP1A1 expression. CYP1A1 activity is subsequently determined by assessing the conversion of Luciferin-CEE to luciferin, which in turn reacts with luciferase to produce light. The amount of light produced is directly proportional to cytochrome P450 activity.
# U937 cells in Ultraculture serum free media (Lonza) were plated at 100,000 cells per well in a round bottom 96 well tissue culture plate. Seven concentrations of test compound (final [DMSO] 1%) were added and incubated for 10 minutes before the addition of 4.5 nM VAF347. The plates were then placed in an incubator at 37° C., ≥ 85% humidity, 5% CO2 for 24 hrs. After aspiration of the supernatant the CYP1A1 substrate Luciferin-CEE ([Final] 83 µM) was added and incubated for 3 hrs before the reaction was stopped by adding luciferin detection reagent and luminescence was read after 20 minutes.
# AhR [2] = target: T1, AhR; assay: AhR antagonism in human PBMCs - inhibition of interleukin-22 (IL-22) release; format: cell-based; conditions: human PBMCs activated with CD3/CD28 agonist; IL-22 release after 72 hrs, against endogenously produced AhR agonists; arithmetic mean of two or more tests; read-out: PBMC Assay (pIC50) (converted)
# Experimental: as §1
# In Vitro Assay 2: AhR Antagonism in Human Peripheral Blood Mononuclear Cells (PBMCS) -Inhibition of Interleukin-22 (IL-22) Release
# PBMCs were isolated from human peripheral blood using Lymphoprep™ and diluted to 1 × 10^6 cells per ml in RPMI media containing 10% foetal bovine serum, 1% penicillin-streptomycin and 1% non-essential amino acids. PBMCs were subsequently activated with 1 µl per 100,000 cells of a CD3/CD28 agonist mixture (human T Cell TransAct™(Miltenyi Biotec)) and then plated at 100,000 cells per well in a round bottom 96 well tissue culture plate. One hour after stimulation seven concentrations of each test compound or vehicle (final [DMSO] 0.2%) were added. The plates were then placed in an incubator at 37° C., ≥ 85% humidity, 5% CO2 for 72 hrs before the media was removed and stored at -20° C. until cytokine analysis. IL-22 was measured using human IL-22 DuoSet ELISA (R&D systems) according to the manufacturer’s instructions.
Compound,IC50 (AhR [1]) [nM],IC50 (AhR [2]) [nM]
"FC(F)(F)c1cncc(-c2nc3c(c(NCCc4c[nH]c5ccccc45)n2)CCNC3)c1 [Example 10, N-[2-(1H-indol-3-yl)ethyl]-2-[5-(trifluoromethyl)pyridin-3-yl]-5H,6H,7H,8H-pyrido[3,4-d]pyrimidin-4-amine]",25.1,794
"COc1ccc2c(CCOc3nc(-c4cncc(F)c4)nc4c3CCNC4)c[nH]c2c1 [Example 17, 3-(2-{[2-(5-Fluoropyridin-3-yl)-5H,6H,7H,8H-Pyrido[3,4-d]Pyrimidin-4-yl]Oxy}Ethyl)-6-Methoxy-1H-Indole Hydrochloride]",50.1,25.1
"Fc1cncc(-c2nc3c(c(NCCc4c(C(F)(F)F)[nH]c5ccccc45)n2)CCNC3)c1 [Example 18, 2-(5-Fluoropyridin-3-yl)-4-({2-[2-(Trifluoromethyl)-1H-Indol-3-yl]Ethyl}Amino)-5H,6H,7H,8H-Pyrido[3,4-d]Pyrimidin-7-ium Chloride]",20,316
"COc1ccc2[nH]c(C)c(CCNc3nc(-c4cncc(F)c4)nc4c3CCNC4)c2c1 [Example 14, 2-(5-Fluoropyridin-3-yl)-4-{[2-(5-Methoxy-2-Methyl-1H-Indol-3-yl)Ethyl]Amino}-5H,6H,7H,8H-Pyrido[3,4-d]Pyrimidin-7-ium Chloride]",100,631
"COc1cncc(-c2nc3c(c(NCCc4c[nH]c5ccccc45)n2)CCNC3)c1 [Example 9, N-[2-(1H-indol-3-yl)ethyl]-2-(5-methoxypyridin-3-yl)-5H,6H,7H,8H-pyrido[3,4-d]pyrimidin-4-amine]",20,794

# More lines, now with the values ahead:
IC50 (AhR [1]) [nM],IC50 (AhR [2]) [nM],Compound
158,631,"CCN1CCc2nc(-c3cncc(F)c3)nc(NCCc3c[nH]c4cc(OC)ccc34)c2CC1 [Example 15, 7-ethyl-2-(5-fluoropyridin-3-yl)-N-[2-(6-methoxy-1H-indol-3-yl)ethyl]-5H,6H,7H,8H,9H-pyrimido[4,5-d]azepin-4-amine]"
316,200,"COc1ccc2c(CCNc3nc(-c4cncc(F)c4)nc4c3CCNCC4)c[nH]c2c1 [Example 16, 2-(5-fluoropyridin-3-yl)-N-[2-(6-methoxy-1H-indol-3-yl)ethyl]-5H,6H,7H,8H,9H-pyrimido[4,5-d]azepin-4-amine]"
126,126,"COc1ccc2c(CCNc3nc(-c4cncc(F)c4)nc4c3CCNC4)c[nH]c2c1 [Example 1, 2-(5-fluoropyridin-3-yl)-N-[2-(6-methoxy-1H-indol-3-yl)ethyl]-5H,6H,7H,8H-pyrido[3,4-d]pyrimidin-4-amine]"
200,398,"COc1ccc2c(CCNc3nc(-c4cncc(F)c4)nc4c3CNC4)c[nH]c2c1 [Example 5, 2-(5-fluoropyridin-3-yl)-N-[2-(6-methoxy-1H-indol-3-yl)ethyl]-5H,6H,7H-pyrrolo[3,4-d]pyrimidin-4-amine]"
